Tests used:
Assay in all cases: relative viability (nuclei count vs DMSO), 5 days (fraction); higher = more cells survive
COR-L 105 = tested on: COR-L 105
Method in brief: (§1)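 Relative viability was taken as the ratio of nuclei in treated wells to nuclei in vehicle wells. Lung cancer cell lines in 1536-well plates received compounds by pin tool one day after seeding, either one drug alone or a fixed anchor-drug dose plus five library-drug doses (not always all listed) in √10 steps. Nuclei were counted on 4× images after 5 days of treatment, and values are medians of duplicate plates.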

HCC-366 = tested on: HCC-366
Method in brief: as §1

PC-3 [JPC-3] = tested on: PC-3 [JPC-3]
Method in brief: as §1

SW 900 = tested on: SW 900
Method in brief: as §1

NCI-H1734 = tested on: NCI-H1734
Method in brief: as §1

LK-2 = tested on: LK-2
Method in brief: as §1

LOU-NH91 = tested on: LOU-NH91
Method in brief: as §1

NCI-H1755 = tested on: NCI-H1755
Method in brief: as §1

NCI-H23 = tested on: NCI-H23
Method in brief: as §1

NCI-H1975 = tested on: NCI-H1975
Method in brief: as §1

A-427 = tested on: A-427
Method in brief: as §1

SK-MES-1 = tested on: SK-MES-1
Method in brief: as §1

H3255 = tested on: H3255
Method in brief: as §1

ChaGo-K-1 = tested on: ChaGo-K-1
Method in brief: as §1

NCI-H441 = tested on: NCI-H441
Method in brief: as §1

NCI-H596 = tested on: NCI-H596
Method in brief: as §1

NCI-H1666 = tested on: NCI-H1666
Method in brief: as §1

EMC-BAC-2 = tested on: EMC-BAC-2
Method in brief: as §1

EKVX = tested on: EKVX
Method in brief: as §1

NCI-H2170 = tested on: NCI-H2170
Method in brief: as §1

NCI-H520 = tested on: NCI-H520
Method in brief: as §1

O=c1cc(-c2cccc3c2Sc2ccccc2S3)oc(N2CCOCC2)c1 + O=C(CCCCCCC(=O)Nc1ccccc1)NO [Vorinostat] (partner 1 µM)
relative viability (COR-L 105; first compound 0.08 µM): 0.782 | relative viability (COR-L 105; first compound 0.253 µM): 0.828 | relative viability (COR-L 105; first compound 0.8 µM): 0.751 | relative viability (COR-L 105; first compound 2.53 µM): 0.795 | relative viability (COR-L 105; first compound 8 µM): 1.1 | relative viability (HCC-366; first compound 0.08 µM): 0.347 | relative viability (HCC-366; first compound 0.253 µM): 0.387 | relative viability (HCC-366; first compound 0.8 µM): 0.297 | relative viability (HCC-366; first compound 2.53 µM): 0.426 | relative viability (HCC-366; first compound 8 µM): 0.42 | relative viability (PC-3 [JPC-3]; first compound 0.08 µM): 0.579 | relative viability (PC-3 [JPC-3]; first compound 0.253 µM): 0.788 | relative viability (PC-3 [JPC-3]; first compound 0.8 µM): 0.769 | relative viability (PC-3 [JPC-3]; first compound 2.53 µM): 0.79 | relative viability (PC-3 [JPC-3]; first compound 8 µM): 0.851 | relative viability (SW 900; first compound 0.253 µM): 0.529 | relative viability (SW 900; first compound 0.8 µM): 0.493 | relative viability (SW 900; first compound 2.53 µM): 0.427 | relative viability (SW 900; first compound 8 µM): 0.393 | relative viability (NCI-H1734; first compound 0.08 µM): 0.771 | relative viability (NCI-H1734; first compound 0.253 µM): 0.94 | relative viability (NCI-H1734; first compound 0.8 µM): 0.824 | relative viability (NCI-H1734; first compound 8 µM): 0.993 | relative viability (LK-2; first compound 0.08 µM): 0.261 | relative viability (LK-2; first compound 0.253 µM): 0.327 | relative viability (LK-2; first compound 0.8 µM): 0.369 | relative viability (LK-2; first compound 2.53 µM): 0.287 | relative viability (LK-2; first compound 8 µM): 0.358 | relative viability (LOU-NH91; first compound 0.08 µM): 0.91 | relative viability (LOU-NH91; first compound 0.253 µM): 0.943 | relative viability (LOU-NH91; first compound 0.8 µM): 0.854 | relative viability (LOU-NH91; first compound 2.53 µM): 0.745 | relative viability (LOU-NH91; first compound 8 µM): 0.898 | relative viability (NCI-H1755; first compound 0.08 µM): 0.734 | relative viability (NCI-H1755; first compound 0.253 µM): 0.797 | relative viability (NCI-H1755; first compound 0.8 µM): 0.795 | relative viability (NCI-H1755; first compound 2.53 µM): 0.709 | relative viability (NCI-H1755; first compound 8 µM): 0.8 | relative viability (NCI-H23; first compound 0.08 µM): 0.477 | relative viability (NCI-H23; first compound 0.253 µM): 0.593 | relative viability (NCI-H23; first compound 0.8 µM): 0.669 | relative viability (NCI-H23; first compound 2.53 µM): 0.543 | relative viability (NCI-H23; first compound 8 µM): 0.516 | relative viability (NCI-H1975; first compound 0.08 µM): 0.687 | relative viability (NCI-H1975; first compound 0.253 µM): 0.827 | relative viability (NCI-H1975; first compound 0.8 µM): 0.707 | relative viability (NCI-H1975; first compound 2.53 µM): 0.671 | relative viability (NCI-H1975; first compound 8 µM): 0.749 | relative viability (A-427; first compound 0.08 µM): 0.863 | relative viability (A-427; first compound 0.253 µM): 0.931 | relative viability (A-427; first compound 0.8 µM): 0.897 | relative viability (A-427; first compound 2.53 µM): 0.834 | relative viability (A-427; first compound 8 µM): 0.829 | relative viability (SK-MES-1; first compound 0.08 µM): 1.15 | relative viability (SK-MES-1; first compound 0.253 µM): 1.23 | relative viability (SK-MES-1; first compound 0.8 µM): 1.01 | relative viability (SK-MES-1; first compound 2.53 µM): 0.975 | relative viability (SK-MES-1; first compound 8 µM): 0.939 | relative viability (H3255; first compound 0.08 µM): 0.811 | relative viability (H3255; first compound 0.253 µM): 0.78 | relative viability (H3255; first compound 0.8 µM): 0.805 | relative viability (H3255; first compound 2.53 µM): 0.878 | relative viability (H3255; first compound 8 µM): 0.896 | relative viability (ChaGo-K-1; first compound 0.08 µM): 0.765 | relative viability (ChaGo-K-1; first compound 0.253 µM): 0.859 | relative viability (ChaGo-K-1; first compound 0.8 µM): 0.876 | relative viability (ChaGo-K-1; first compound 2.53 µM): 0.753 | relative viability (ChaGo-K-1; first compound 8 µM): 0.847 | relative viability (NCI-H441; first compound 0.08 µM): 0.921 | relative viability (NCI-H441; first compound 0.253 µM): 1.01 | relative viability (NCI-H441; first compound 0.8 µM): 1.14 | relative viability (NCI-H441; first compound 2.53 µM): 0.838 | relative viability (NCI-H441; first compound 8 µM): 0.935 | relative viability (NCI-H596; first compound 0.08 µM): 0.51 | relative viability (NCI-H596; first compound 0.253 µM): 0.749 | relative viability (NCI-H596; first compound 0.8 µM): 0.585 | relative viability (NCI-H596; first compound 2.53 µM): 0.575 | relative viability (NCI-H596; first compound 8 µM): 0.717 | relative viability (NCI-H1666; first compound 0.08 µM): 1 | relative viability (NCI-H1666; first compound 0.253 µM): 1.15 | relative viability (NCI-H1666; first compound 0.8 µM): 0.963 | relative viability (NCI-H1666; first compound 2.53 µM): 1.02 | relative viability (NCI-H1666; first compound 8 µM): 1.06 | relative viability (EMC-BAC-2; first compound 0.08 µM): 0.35 | relative viability (EMC-BAC-2; first compound 0.253 µM): 0.471 | relative viability (EMC-BAC-2; first compound 0.8 µM): 0.524 | relative viability (EMC-BAC-2; first compound 2.53 µM): 0.607 | relative viability (EMC-BAC-2; first compound 8 µM): 0.48 | relative viability (EKVX; first compound 0.08 µM): 0.862 | relative viability (EKVX; first compound 0.253 µM): 0.839 | relative viability (EKVX; first compound 0.8 µM): 0.601 | relative viability (EKVX; first compound 2.53 µM): 0.675 | relative viability (EKVX; first compound 8 µM): 0.569 | relative viability (NCI-H2170; first compound 0.08 µM): 0.857 | relative viability (NCI-H2170; first compound 0.253 µM): 0.952 | relative viability (NCI-H2170; first compound 0.8 µM): 0.92 | relative viability (NCI-H2170; first compound 2.53 µM): 0.693 | relative viability (NCI-H2170; first compound 8 µM): 0.932 | relative viability (NCI-H520; first compound 0.08 µM): 0.704 | relative viability (NCI-H520; first compound 0.253 µM): 0.856 | relative viability (NCI-H520; first compound 0.8 µM): 0.741 | relative viability (NCI-H520; first compound 2.53 µM): 0.787 | relative viability (NCI-H520; first compound 8 µM): 0.648

Reference: the supplement of paper PMC10307832
